Laboratory results reported in patent US20240317743A1, “Solid Forms of BCL-2 Inhibitors, Method of Preparation, and Use Thereof” (BeiGene, Ltd., priority 2021, published 2024).
In brackets after ≈: the same amount, converted by molar mass.

Key:
Format in all cases: physicochemical
[1] = DVS (Method B) water sorption / hygroscopicity; conditions: 25° C.; for water sorption: at 95% RH
Description: DVS of Form A and U was also measured via an SMS (Surface Measurement Systems) DVS Intrinsic (Method B). The relative humidity at 25° C. was calibrated against deliquescence point of LiCl, Mg(NO3)2, and KCL. Parameters for DVS test are listed as follows. [table]

[2] = Solid form solubility, concentration by HPLC at 24 hours; conditions: listed as Compound 1 Form A
Description: The solubility of Compound 1 in different physical forms was tested in water, 0.1 N HCl, pH 4.5 acetate buffer and pH 6.8 phosphate buffer. At 24 hours of time point, the concentration of Compound 1 was detected by HPLC.

[3] = Long term and accelerated physical and chemical stability test, impurities by HPLC
Description: Long term and accelerated stability studies were conducted in different physical forms of Compound 1, by storing the samples at 25±2° C./60±5% RH and 40±2° C./75±5% RH conditions for up to 6 months. And, the content of the total impurities of each sample was tested by HPLC.

[4] = Physical stability: storage under humidity/temperature, form checked by XRPD
Description: To evaluate the physicochemical stability, store 1˜3 mg of Forms B, S, M, R, F, H and N samples were stored under 25° C./60% RH or 40° C./75% RH conditions for one week (unsealed) or 80° C. condition for 24 hrs (sealed).

[5] = Storage at RT, form checked by XRPD overlay
Description: Form K was speculated as a methyl acetate solvate.
Thus, Form L was speculated as a metastable anhydrate/hydrate which could be de-solvated from the wet cake from the solvent system.
(peak) before decomposition (FIG. 16B). According to the integration of ^1H NMR result (FIG. 16C), the theoretical weight of chlorobenzene was calculated as 9.8%, which matched with the TGA weight loss. […] After heating the sample to 140° C., more diffraction peaks disappeared. Combined with the TGA, ^1H NMR data and heating experiment, Form P was speculated as a chlorobenzene solvate.

[6] = 25±2° C./60±5% RH and 40±2° C./75±5% RH, up to 6 months
[7] = 25° C./60% RH, one week, unsealed
[8] = 40° C./75% RH, one week, unsealed

## CC(C)c1ccccc1[C@@H]1CCCN1C1CC2(CCN(c3ccc(C(=O)NS(=O)(=O)c4ccc(NCC5CCC(C)(O)CC5)c([N+](=O)[O-])c4)c(Oc4cnc5[nH]ccc5c4)c3)CC2)C1 (stereo partly drawn) [Form A, 2-((1H-pyrrolo[2,3-b]pyridin-5-yl)oxy)-N-((4-((((1r,4r)-4-hydroxy-4-methylcyclohexyl)methyl)amino)-3-nitrophenyl)sulfonyl)-4-(2-((S)-2-(2-isopropylphenyl)pyrrolidin-1-yl)-7-azaspiro[3.5]nonan-7-yl)benzamide]
[1]; listed as Compound 1 form A
  water sorption: 0.4%
  hygroscopicity: slightly hygroscopic
[2]; 0.1 N HCl
  solubility: 29.36 µg/mL (≈ 33 µM)
[2]; pH 4.5 acetate buffer
  solubility: 0.76 µg/mL (≈ 0.854 µM)
[2]; pH 6.8 phosphate buffer
  solubility: 0.43 µg/mL (≈ 0.483 µM)
[2]; water
  solubility: 0.37 µg/mL (≈ 0.416 µM)
[3]; [6]
  crystal form change: no crystal form and optical purity changes
  optical purity change: no crystal form and optical purity changes
[3]; 25±2° C./60±5% RH and 40±2° C./75±5% RH, up to 6 months, listed as Compound 1 Form A
  change of chemical purity: no significant change
[3]; after 6 months at 40±2° C./75±5% RH, listed as Compound 1 Form A
  total content of impurities: 0.52%
[3]; after storage in the stability study
  content of solvent EA: ~8.8 ×10^4 ppm
[3]; before storage (initial)
  content of solvent EA: about 9.5 ×10^4 ppm
[3]; before storage (initial), listed as Compound 1 Form A
  total content of impurities: 0.40%

## CC(C)c1ccccc1[C@@H]1CCCN1C1CC2(CCN(c3ccc(C(=O)NS(=O)(=O)c4ccc(NCC5CCC(C)(O)CC5)c([N+](=O)[O-])c4)c(Oc4cnc5[nH]ccc5c4)c3)CC2)C1 (stereo partly drawn) [Form F, 2-((1H-pyrrolo[2,3-b]pyridin-5-yl)oxy)-N-((4-((((1r,4r)-4-hydroxy-4-methylcyclohexyl)methyl)amino)-3-nitrophenyl)sulfonyl)-4-(2-((S)-2-(2-isopropylphenyl)pyrrolidin-1-yl)-7-azaspiro[3.5]nonan-7-yl)benzamide]
[4]; [7]
  form change (XRPD overlay): a mixture of Forms F and B was observed
[4]; [8]
  form change (XRPD overlay): a mixture of Forms F and B was observed
[4]; 80° C., sealed, 24 hrs
  form change (XRPD overlay): a mixture of Forms F and B was observed

## CC(C)c1ccccc1[C@@H]1CCCN1C1CC2(CCN(c3ccc(C(=O)NS(=O)(=O)c4ccc(NCC5CCC(C)(O)CC5)c([N+](=O)[O-])c4)c(Oc4cnc5[nH]ccc5c4)c3)CC2)C1 (stereo partly drawn) [Form H, 2-((1H-pyrrolo[2,3-b]pyridin-5-yl)oxy)-N-((4-((((1r,4r)-4-hydroxy-4-methylcyclohexyl)methyl)amino)-3-nitrophenyl)sulfonyl)-4-(2-((S)-2-(2-isopropylphenyl)pyrrolidin-1-yl)-7-azaspiro[3.5]nonan-7-yl)benzamide]
[4]; [7]
  form change (XRPD overlay): no form change
[4]; [8]
  form change (XRPD overlay): no form change
[4]; 80° C., sealed, 24 hrs
  form change (XRPD overlay): an obvious decrease of crystallinity was observed

## CC(C)c1ccccc1[C@@H]1CCCN1C1CC2(CCN(c3ccc(C(=O)NS(=O)(=O)c4ccc(NCC5CCC(C)(O)CC5)c([N+](=O)[O-])c4)c(Oc4cnc5[nH]ccc5c4)c3)CC2)C1 (stereo partly drawn) [Form K, 2-((1H-pyrrolo[2,3-b]pyridin-5-yl)oxy)-N-((4-((((1r,4r)-4-hydroxy-4-methylcyclohexyl)methyl)amino)-3-nitrophenyl)sulfonyl)-4-(2-((S)-2-(2-isopropylphenyl)pyrrolidin-1-yl)-7-azaspiro[3.5]nonan-7-yl)benzamide]
[5]; RT, closed HPLC vial, ~5 weeks
  form change on storage (XRPD overlay): converted to Form B of low crystallinity

## CC(C)c1ccccc1[C@@H]1CCCN1C1CC2(CCN(c3ccc(C(=O)NS(=O)(=O)c4ccc(NCC5CCC(C)(O)CC5)c([N+](=O)[O-])c4)c(Oc4cnc5[nH]ccc5c4)c3)CC2)C1 (stereo partly drawn) [Form L, 2-((1H-pyrrolo[2,3-b]pyridin-5-yl)oxy)-N-((4-((((1r,4r)-4-hydroxy-4-methylcyclohexyl)methyl)amino)-3-nitrophenyl)sulfonyl)-4-(2-((S)-2-(2-isopropylphenyl)pyrrolidin-1-yl)-7-azaspiro[3.5]nonan-7-yl)benzamide]
[5]; storage at RT
  form change on storage: converted to Form I

## CC(C)c1ccccc1[C@@H]1CCCN1C1CC2(CCN(c3ccc(C(=O)NS(=O)(=O)c4ccc(NCC5CCC(C)(O)CC5)c([N+](=O)[O-])c4)c(Oc4cnc5[nH]ccc5c4)c3)CC2)C1 (stereo partly drawn) [Form M, 2-((1H-pyrrolo[2,3-b]pyridin-5-yl)oxy)-N-((4-((((1r,4r)-4-hydroxy-4-methylcyclohexyl)methyl)amino)-3-nitrophenyl)sulfonyl)-4-(2-((S)-2-(2-isopropylphenyl)pyrrolidin-1-yl)-7-azaspiro[3.5]nonan-7-yl)benzamide]
[4]; [7]
  form change (XRPD overlay): no form change
[4]; [8]
  form change (XRPD overlay): no form change
[4]; 80° C., sealed, 24 hrs
  form change (XRPD overlay): no form change

## CC(C)c1ccccc1[C@@H]1CCCN1C1CC2(CCN(c3ccc(C(=O)NS(=O)(=O)c4ccc(NCC5CCC(C)(O)CC5)c([N+](=O)[O-])c4)c(Oc4cnc5[nH]ccc5c4)c3)CC2)C1 (stereo partly drawn) [Form N, 2-((1H-pyrrolo[2,3-b]pyridin-5-yl)oxy)-N-((4-((((1r,4r)-4-hydroxy-4-methylcyclohexyl)methyl)amino)-3-nitrophenyl)sulfonyl)-4-(2-((S)-2-(2-isopropylphenyl)pyrrolidin-1-yl)-7-azaspiro[3.5]nonan-7-yl)benzamide]
[4]; [7]
  form change (XRPD overlay): converted to Form T
[4]; [8]
  form change (XRPD overlay): converted to Form T
[4]; 80° C., sealed, 24 hrs
  form change (XRPD overlay): converted to Form T

## CC(C)c1ccccc1[C@@H]1CCCN1C1CC2(CCN(c3ccc(C(=O)NS(=O)(=O)c4ccc(NCC5CCC(C)(O)CC5)c([N+](=O)[O-])c4)c(Oc4cnc5[nH]ccc5c4)c3)CC2)C1 (stereo partly drawn) [Form P, 2-((1H-pyrrolo[2,3-b]pyridin-5-yl)oxy)-N-((4-((((1r,4r)-4-hydroxy-4-methylcyclohexyl)methyl)amino)-3-nitrophenyl)sulfonyl)-4-(2-((S)-2-(2-isopropylphenyl)pyrrolidin-1-yl)-7-azaspiro[3.5]nonan-7-yl)benzamide]
[5]; RT, ~4 weeks
  form change on storage (XRPD comparison): some of the diffraction peaks disappeared

## CC(C)c1ccccc1[C@@H]1CCCN1C1CC2(CCN(c3ccc(C(=O)NS(=O)(=O)c4ccc(NCC5CCC(C)(O)CC5)c([N+](=O)[O-])c4)c(Oc4cnc5[nH]ccc5c4)c3)CC2)C1 (stereo partly drawn) [Form R, 2-((1H-pyrrolo[2,3-b]pyridin-5-yl)oxy)-N-((4-((((1r,4r)-4-hydroxy-4-methylcyclohexyl)methyl)amino)-3-nitrophenyl)sulfonyl)-4-(2-((S)-2-(2-isopropylphenyl)pyrrolidin-1-yl)-7-azaspiro[3.5]nonan-7-yl)benzamide]
[4]; [7]
  form change (XRPD overlay): no form change was observed
[4]; [8]
  form change (XRPD overlay): no form change was observed
[4]; 80° C., sealed, 24 hrs
  form change (XRPD overlay): converted to a form which was similar to Form S

## CC(C)c1ccccc1[C@@H]1CCCN1C1CC2(CCN(c3ccc(C(=O)NS(=O)(=O)c4ccc(NCC5CCC(C)(O)CC5)c([N+](=O)[O-])c4)c(Oc4cnc5[nH]ccc5c4)c3)CC2)C1 (stereo partly drawn) [Form S, 2-((1H-pyrrolo[2,3-b]pyridin-5-yl)oxy)-N-((4-((((1r,4r)-4-hydroxy-4-methylcyclohexyl)methyl)amino)-3-nitrophenyl)sulfonyl)-4-(2-((S)-2-(2-isopropylphenyl)pyrrolidin-1-yl)-7-azaspiro[3.5]nonan-7-yl)benzamide]
[4]; [7]
  form change (XRPD overlay): no form change
[4]; [8]
  form change (XRPD overlay): no form change
[4]; 80° C., sealed, 24 hrs
  form change (XRPD overlay): no form change

## CC(C)c1ccccc1[C@@H]1CCCN1C1CC2(CCN(c3ccc(C(=O)NS(=O)(=O)c4ccc(NCC5CCC(C)(O)CC5)c([N+](=O)[O-])c4)c(Oc4cnc5[nH]ccc5c4)c3)CC2)C1 (stereo partly drawn) [Form U, 2-((1H-pyrrolo[2,3-b]pyridin-5-yl)oxy)-N-((4-((((1r,4r)-4-hydroxy-4-methylcyclohexyl)methyl)amino)-3-nitrophenyl)sulfonyl)-4-(2-((S)-2-(2-isopropylphenyl)pyrrolidin-1-yl)-7-azaspiro[3.5]nonan-7-yl)benzamide]
[1]; listed as Compound 1 Form U
  water sorption: 1.4%
  hygroscopicity: slightly hygroscopicity
[3]; 25±2° C./60±5% RH and 40±2° C./75±5% RH, up to 6 months, listed as Compound 1 Form U
  change of chemical purity: no significant change
[3]; after 6 months at 40±2° C./75±5% RH, listed as Compound 1 Form U
  total content of impurities: 0.72%
[3]; before storage (initial), listed as Compound 1 Form U
  total content of impurities: 0.40%
